Read-outs that look alike come from different tables or passages of the source.
Legend:
[1] = Phase 1 single-rising dose (SRD, Part 1) plasma PK in healthy subjects; format: in vivo, human; conditions: for Vd/F / AUC(0-inf) / Cmax / Tmax / AUC(0-t): both sexes, human, plasma; for Tmax: po
Method: The study was designed to assess the safety, tolerability, PK, and PD of COMPOUND A. A total of 88 subjects were enrolled in 6 SRD and 5 SRD/MRD cohorts (n=8 per cohort). The study was composed of 2 parts.
In Part 1 of the study (SRD cohorts), a single oral tablet dose of COMPOUND A (0.3, 1, 3, 5, 9, or 18 mg) or matching placebo was administered on Day 1 followed by safety, tolerability, PK, and PD assessments. In each SRD cohort of 8 subjects (6 active: 2 placebo), sentinel dosing was used whereby 2 initial subjects (1 active: 1 placebo) were administered study drug to evaluate safety and tolerability before dosing in the remaining subjects (5 active: 1 placebo) after an interval of at least 24 hours. Dosing in the remaining 6 subjects from each cohort was staggered such that only 3 subjects were dosed in 1 day, with the last 3 subjects being dosed after an additional 24-hour interval. The data from each cohort were reviewed sequentially to ensure adequate safety and tolerability before administering the next dose level. Study drug was administered after an overnight fast of at least 10 hours. Subjects were confined in the study unit for 5 days, from Check-in on Day −1 until approximately 96 hours after dosing. Subjects in Cohorts 1 to 5 (0.3-9 mg) returned to the clinic on Days 6 and 7 and subjects in Cohort 6 (18 mg) returned on Days 6, 7 and 8 for additional PK blood sample collections. To allow for a preliminary assessment of the effect of food on the PK of COMPOUND A, subjects in SRD Cohort 3 (3 mg) returned to the clinic to receive study drug under fed conditions (standard high-fat meal, as defined by the Food and Drug Administration (“FDA”)), after the safety and tolerability of the higher dose (5 mg) under fasted conditions had been established.
For all cohorts in Parts 1 and 2, serial PK blood samples were collected pre- and post-dose on Day 1 to measure plasma concentrations of COMPOUND A and its metabolites. For all SRD/MRD cohorts in Part 2, urine samples were collected pre- and post-dose on Day 1 and post-dose on Day 18 to measure concentrations of COMPOUND A and its metabolites.
For Part 1 of the study, all 36 subjects who received COMPOUND A were included in the PK set. For Part 2 of the study, all 30 subjects who received COMPOUND A were included in the PK set.
Referring now to FIG. 2, mean plasma concentration-time profiles (linear and semilog scales) of COMPOUND A were determined following single oral administration of COMPOUND A.

healthy subjects = assay: TMS crossover study: safety and tolerability; conditions: single doses 0.5 mg and 6 mg oral tablets
[2] = 13-week NHP GLP toxicity study: toxicokinetics; format: in vivo, Monkey (Macaca fascicularis); conditions: cynomolgus monkey, plasma, oral; range across all TK sampling days (1st, 29th, 90th dosing)
Method: Blood samples (a target of 0.5 mL each, Na-heparin tubes) were collected from all animals at the following timepoints: • Phase 1: at 4 hours after dosing. • Phase 2: Plasma concentrations of COMPOUND A and its metabolites were determined for all dose groups after the 1st, the 29th dosing and the 90th dosing. Blood collection occurred in each animal in all groups before dosing (at the 29th and 90th dose only) and 1, 2, 4, 8, and 24 hours after dosing. Blood samples were collected into Na-heparin tubes via the implanted catheter or from the jugular, cephalic or femoral vein by venipuncture; tubes were kept on wet ice pending centrifugation. The blood samples were centrifuged at 5400×g for 5 minutes under cooling conditions (set to 4° C.) to obtain the plasma. The plasma was divided into duplicate samples (at least 100 μL each) and was kept on dry ice and stored in a freezer set to −20° C. until shipment. Back-up samples (set 2 of 2) were stored separately from set 1 of 2.
Non-compartmental toxicokinetic analysis was performed by the subcontractor on the plasma concentration data for COMPOUND A, and its metabolites using validated WinNonlin software. The TK parameters (tmax, Cmax, t1/2, MRT24, MRTinf, AUC24 and AUCinf) were calculated for all animals except for the control animals.

[3] = single oral 0.3 mg, mean, N = 6

CC1=CN2CCS(=O)(=O)N=C2C(c2ccc(OC3CCCCC3)cc2)=N1 [COMPOUND A, 9-[4-(Cyclohexyloxy)phenyl]-7-methyl-3,4-dihydropyrazino[2,1-c][1,2,4]thiadiazine 2,2-dioxide]
Vd/F ([1]; oral, range across single dose levels, read-out: mean Vz/F): 95.1 to 133 L
AUC(0-inf) ([1]; oral, range across the 0.3 to 18 mg single dose range, read-out: mean AUC∞): 148 to 8880 ng·h/mL
Cmax ([1]; oral, range across the 0.3 to 18 mg single dose range, read-out: mean plasma Cmax): 3.63 to 126 ng/mL
Tmax ([1]; 0.3 mg, single oral 0.3 mg, median, N = 6, read-out: tmax): 1.25 h
Tmax ([1]; 1 mg, single oral 1 mg, median, N = 6, read-out: tmax): 2.5 h
Tmax ([1]; 3 mg, single oral 3 mg, median, N = 6, read-out: tmax): 1.75 h
Tmax ([1]; 5 mg, single oral 5 mg, median, N = 6, read-out: tmax): 2.75 h
Tmax ([1]; 9 mg, single oral 9 mg, median, N = 6, read-out: tmax): 5.5 h
Tmax ([1]; 18 mg, range across single oral doses 0.3, 1, 3, 5, 9, 18 mg, read-out: median tmax): 1.25 to 5.5 h
Tmax ([1]; 18 mg, single oral 18 mg, median, N = 6, read-out: tmax): 5.05 h
AUC(0-t) [1, 3]: 126 ng·h/mL
AUC(0-inf) ([1]; single oral 0.3 mg, mean, N = 6, read-out: AUC∞): 148 ng·h/mL
Cmax ([1]; single oral 0.3 mg, mean, N = 6, read-out: Cmax): 3.63 ng/mL
Vd/F ([1]; single oral 0.3 mg, mean, N = 6, read-out: Vz/F): 98.8 L
AUC(0-t) ([1]; single oral 1 mg, mean, N = 6): 565 ng·h/mL
AUC(0-inf) ([1]; single oral 1 mg, mean, N = 6, read-out: AUC∞): 642 ng·h/mL
Cmax ([1]; single oral 1 mg, mean, N = 6, read-out: Cmax): 10.3 ng/mL
Vd/F ([1]; single oral 1 mg, mean, N = 6, read-out: Vz/F): 95.1 L
AUC(0-t) ([1]; single oral 3 mg, mean, N = 6): 1340 ng·h/mL
AUC(0-inf) ([1]; single oral 3 mg, mean, N = 6, read-out: AUC∞): 1460 ng·h/mL
Cmax ([1]; single oral 3 mg, mean, N = 6, read-out: Cmax): 27.1 ng/mL
Vd/F ([1]; single oral 3 mg, mean, N = 6, read-out: Vz/F): 114 L
AUC(0-t) ([1]; single oral 5 mg, mean, N = 6): 2320 ng·h/mL
AUC(0-inf) ([1]; single oral 5 mg, mean, N = 6, read-out: AUC∞): 2650 ng·h/mL
Cmax ([1]; single oral 5 mg, mean, N = 6, read-out: Cmax): 45.3 ng/mL
Vd/F ([1]; single oral 5 mg, mean, N = 6, read-out: Vz/F): 115 L
AUC(0-t) ([1]; single oral 9 mg, mean, N = 6): 4490 ng·h/mL
AUC(0-inf) ([1]; single oral 9 mg, mean, N = 6, read-out: AUC∞): 5380 ng·h/mL
Cmax ([1]; single oral 9 mg, mean, N = 6, read-out: Cmax): 69.5 ng/mL
Vd/F ([1]; single oral 9 mg, mean, N = 6, read-out: Vz/F): 120 L
AUC(0-t) ([1]; single oral 18 mg, mean, N = 6): 8080 ng·h/mL
AUC(0-inf) ([1]; single oral 18 mg, mean, N = 6, read-out: AUC∞): 8880 ng·h/mL
Cmax ([1]; single oral 18 mg, mean, N = 6, read-out: Cmax): 126 ng/mL
Vd/F ([1]; single oral 18 mg, mean, N = 6, read-out: Vz/F): 133 L
CL/F [1, 3]: 2.17 L/h
t1/2z [1, 3]: 33.1 h
CL/F ([1]; single oral 1 mg, mean, N = 6): 1.79 L/h
t1/2z ([1]; single oral 1 mg, mean, N = 6): 41.3 h
CL/F ([1]; single oral 3 mg, mean, N = 6): 2.18 L/h
t1/2z ([1]; single oral 3 mg, mean, N = 6): 37.9 h
CL/F ([1]; single oral 5 mg, mean, N = 6): 2.08 L/h
t1/2z ([1]; single oral 5 mg, mean, N = 6): 42.5 h
CL/F ([1]; single oral 9 mg, mean, N = 6): 1.98 L/h
t1/2z ([1]; single oral 9 mg, mean, N = 6): 47.8 h
CL/F ([1]; single oral 18 mg, mean, N = 6): 2.29 L/h
t1/2z ([1]; single oral 18 mg, mean, N = 6): 44.1 h
deaths or SAEs (healthy subjects): No deaths or SAEs were reported
Tmax [2]: 2 to 15 h
